In ChEMBL document CHEMBL3758098, “3-(Dipropylamino)-5-hydroxybenzofuro[2,3-f]quinazolin-1(2H)-one (DPA-HBFQ-1) plays an inhibitory role on breast cancer cell growth and progression” (Eur J Med Chem, 2016):
Calls of active or inactive are those of the source. The calls are words filed in the database; no cut-off is given here.

Key:
[1] = tested on: MDA-MB-231; assay: Induction of p53 consensus sequences deficient […]/WAF1 promoter activity in human MDA-MB-231 cells at 0.1 to 1 uM after 24 hrs by dual luciferase reporter gene assay; format: cell-based
[2] = tested on: MCF7; assay: Induction of apoptosis in human MCF7 cells assessed as DNA fragmentation at 1 uM after 48 hrs by DNA laddering assay; format: functional, cell-based
[3] = Cytotoxicity against human MCF-7 TR1 cells assessed as cell colony formation after 14 days by crystal violet staining-based assay; format: functional; details: MCF-7 TR1, 336 h
[4] = target: Cellular tumor antigen p53 (Homo sapiens) (UniProt P04637); assay: Activation of p53 in human MCF7 cells assessed as upregulation of […]/WAF1 mRNA expression at 0.1 uM after 12 hrs by RT-PCR analysis; format: cell-based
[5] = tested on: MDA-MB-231; assay: Cytotoxicity against human MDA-MB-231 cells assessed as reduction of colony formation at 0.1 uM after 14 days by MTT staining-based anchorage-independant soft agar assay; format: functional, cell-based
[6] = target: Cellular tumor antigen p53 (Homo sapiens) (UniProt P04637); assay: Activation of p53 in human MCF7 cells assessed as upregulation of […]/WAF1 gene expression at 1 uM after 24 hrs by dual luciferase reporter gene assay; format: cell-based
[7] = Induction of apoptosis in human MCF10A cells assessed as DNA fragmentation at 1 uM after 48 hrs by DNA laddering assay; format: cell-based; details: mcf-10a
[8] = target: Cellular tumor antigen p53 (Homo sapiens) (UniProt P04637); assay: Activation of p53 in human MCF7 cells assessed as upregulation of […]/WAF1 expression after 48 hrs by Western blot analysis; format: cell-based
[9] = tested on: MCF7; assay: Cytotoxicity against human MCF7 cells assessed as growth inhibition at 1 uM after 5 days by MTT assay relative to vehicle-treated control; format: functional; details: MCF7, 120 h, read-out: GI
[10] = tested on: MDA-MB-231; assay: Cytotoxicity against human MDA-MB-231 cells assessed as cell viability after 5 days by MTT assay; format: functional, cell-based; details: MDA-MB-231, 120 h
[11] = tested on: MCF7; assay: Upregulation of p53 expression in human MCF7 cells after 48 hrs by Western blot analysis; format: functional, cell-based
[12] = tested on: MCF-7 TR1; assay: Induction of apoptosis in human MCF-7 TR1 cells assessed as PARP proteolysis at 1 uM after 48 hrs by Western blot analysis; format: functional, cell-based
[13] = tested on: HeLa; assay: Cytotoxicity against human HeLa cells assessed as growth inhibition by MTT assay; format: functional, cell-based
[14] = tested on: MCF7; assay: Upregulation of p53 mRNA expression in human MCF7 cells at 0.1 to 1 uM after 12 hrs by RT-PCR analysis; format: functional, cell-based
[15] = target: Cellular tumor antigen p53 (Homo sapiens) (UniProt P04637); assay: Activation of p53 in human MDA-MB-231 cells assessed as upregulation of […]/WAF1 expression after 48 hrs by Western blot analysis; format: cell-based
[16] = target: Cellular tumor antigen p53 (Homo sapiens) (UniProt P04637); assay: Activation of p53 in human MCF7 cells assessed as upregulation of […]/WAF1 gene expression at 0.1 to 1 uM after 24 hrs by dual luciferase reporter gene assay; format: cell-based
[17] = target: Cellular tumor antigen p53 (Homo sapiens) (UniProt P04637); assay: Activation of p53 in human MCF7 cells assessed as upregulation of […]/WAF1 gene expression at 1 uM by dual luciferase reporter gene assay in presence of p53 siRNA; format: cell-based
[18] = target: DNA topoisomerase 2-alpha (Homo sapiens) (UniProt P11388); assay: Inhibition of human topoisomerase 2 assessed as decatenation of kDNA after 30 mins by agarose gel electrophoresis
[19] = Cytotoxicity against rat R2C cells assessed as growth inhibition by MTT assay; format: functional, cell-based
[20] = tested on: MCF7; assay: Cytotoxicity against human MCF7 cells assessed as reduction of colony formation at 1 uM after 14 days by MTT staining-based anchorage-independant soft agar assay; format: functional, cell-based
[21] = tested on: MDA-MB-231; assay: Upregulation of p53 expression in human MDA-MB-231 cells after 48 hrs by Western blot analysis; format: functional, cell-based
[22] = tested on: Ishikawa; assay: Cytotoxicity against human Ishikawa cells assessed as growth inhibition by MTT assay; format: functional, cell-based
[23] = tested on: MDA-MB-231; assay: Cytotoxicity against human MDA-MB-231 cells assessed as reduction of colony formation at 1 uM after 14 days by MTT staining-based anchorage-independant soft agar assay; format: functional, cell-based
[24] = tested on: MCF7; assay: Cytotoxicity against human MCF7 cells assessed as cell viability after 5 days by MTT assay; format: functional, cell-based; details: MCF7, 120 h
[25] = target: T1, DNA topoisomerase 1 (Homo sapiens) (UniProt P11387); assay: Inhibition of recombinant human topoisomerase 1 assessed as relaxation of supercoiled pHOT1 at 10 uM after 30 mins by agarose gel electrophoresis
T1 sequence (whole entry): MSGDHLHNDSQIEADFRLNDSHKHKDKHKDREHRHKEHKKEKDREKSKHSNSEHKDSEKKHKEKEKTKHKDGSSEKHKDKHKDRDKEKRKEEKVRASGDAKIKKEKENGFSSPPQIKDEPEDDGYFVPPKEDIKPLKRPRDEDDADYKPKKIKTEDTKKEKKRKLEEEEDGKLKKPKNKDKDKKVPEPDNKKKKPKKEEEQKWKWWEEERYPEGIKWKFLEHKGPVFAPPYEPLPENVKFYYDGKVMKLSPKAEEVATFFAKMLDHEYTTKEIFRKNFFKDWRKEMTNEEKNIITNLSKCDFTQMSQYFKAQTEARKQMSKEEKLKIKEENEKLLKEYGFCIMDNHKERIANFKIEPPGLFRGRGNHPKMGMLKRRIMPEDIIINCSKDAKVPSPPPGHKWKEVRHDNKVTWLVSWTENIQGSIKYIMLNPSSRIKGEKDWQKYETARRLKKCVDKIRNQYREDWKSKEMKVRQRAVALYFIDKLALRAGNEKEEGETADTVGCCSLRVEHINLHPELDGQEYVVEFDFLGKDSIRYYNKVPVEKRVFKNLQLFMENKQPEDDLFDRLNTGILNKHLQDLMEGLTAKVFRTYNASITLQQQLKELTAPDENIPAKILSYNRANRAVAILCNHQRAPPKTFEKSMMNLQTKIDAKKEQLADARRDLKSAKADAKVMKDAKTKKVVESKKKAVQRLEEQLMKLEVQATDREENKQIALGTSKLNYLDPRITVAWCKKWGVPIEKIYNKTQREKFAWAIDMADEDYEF

[26] = target: Cellular tumor antigen p53 (Homo sapiens) (UniProt P04637); assay: Activation of p53 in human MDA-MB-231 cells assessed as upregulation of […]/WAF1 mRNA expression at 0.1 uM after 12 hrs by RT-PCR analysis; format: cell-based
[27] = tested on: MDA-MB-231; assay: Induction of apoptosis in human MDA-MB-231 cells assessed as DNA fragmentation at 1 uM after 48 hrs by DNA laddering assay; format: functional, cell-based
[28] = target: Cellular tumor antigen p53 (Homo sapiens) (UniProt P04637); assay: Activation of p53 in human MDA-MB-231 cells assessed as upregulation of […]/WAF1 mRNA expression at 1 uM after 12 hrs by RT-PCR analysis; format: cell-based
[29] = tested on: MCF-7 TR1; assay: Cytotoxicity against human MCF-7 TR1 cells assessed as reduction of colony formation at 1 uM after 14 days by MTT staining-based anchorage-independant soft agar assay; format: functional, cell-based
[30] = tested on: HepG2; assay: Cytotoxicity against human HepG2 cells assessed as growth inhibition by MTT assay; format: functional, cell-based
[31] = Upregulation of p53 expression in human MCF10A cells at 0.1 uM after 48 hrs by Western blot analysis; format: ADME, cell-based; details: mcf-10a
[32] = target: Cellular tumor antigen p53 (Homo sapiens) (UniProt P04637); assay: Activation of p53 in human MCF7 cells assessed as upregulation of […]/WAF1 mRNA expression at 1 uM after 12 hrs by RT-PCR analysis; format: cell-based
[33] = tested on: MCF-7 TR1; assay: Induction of apoptosis in human MCF-7 TR1 cells assessed as DNA fragmentation at 1 uM after 48 hrs by DNA laddering analysis; format: functional, cell-based
[34] = Upregulation of p53 expression in human MCF-7 TR1 cells at 1 uM after 48 hrs by Western blot analysis; format: functional, cell-based
[35] = target: Cellular tumor antigen p53 (Homo sapiens) (UniProt P04637); assay: Activation of p53 in human MCF-7 TR1 cells assessed as upregulation of […]/WAF1 gene expression at 1 uM after 48 hrs by Western blot analysis; format: cell-based
[36] = target: T1, DNA topoisomerase 1 (Homo sapiens); assay: Inhibition of recombinant human topoisomerase 1 assessed as relaxation of supercoiled pHOT1 at 50 uM after 30 mins by agarose gel electrophoresis
[37] = target: Cellular tumor antigen p53 (Homo sapiens) (UniProt P04637); assay: Activation of p53 in human MCF7 cells assessed as upregulation of […]/WAF1 gene expression at 0.1 uM after 24 hrs by dual luciferase reporter gene assay; format: cell-based
[38] = tested on: MCF-7 TR1; assay: Cytotoxicity against human MCF-7 TR1 cells assessed as reduction of cell vitality at 0.1 to 1 uM after 3 to 5 days by MTT assay; format: functional, cell-based
[39] = tested on: MCF7; assay: Induction of p53 consensus sequences deficient […]/WAF1 promoter activity in human MCF7 cells at 0.1 uM after 24 hrs by dual luciferase reporter gene assay; format: cell-based
[40] = Upregulation of p53 expression in human MCF-7 TR1 cells at 0.1 uM after 48 hrs by Western blot analysis; format: functional, cell-based
[41] = tested on: MDA-MB-231; assay: Cytotoxicity against human MDA-MB-231 cells assessed as growth inhibition at 1 uM after 5 days by MTT assay relative to vehicle-treated control; format: functional; details: MDA-MB-231, 120 h, read-out: GI
[42] = Induction of apoptosis in human MCF10A cells assessed as PARP proteolysis at 1 uM after 48 hrs by Western blot analysis; format: cell-based; details: mcf-10a
[43] = Cytotoxicity against human MCF10A cells assessed as growth inhibition at 1 uM after 5 days by MTT assay relative to vehicle-treated control; format: cell-based; details: mcf-10a, 120 h
[44] = Upregulation of p53 expression in human MCF10A cells at 1 uM after 48 hrs by Western blot analysis; format: ADME, cell-based; details: mcf-10a
[45] = tested on: MCF7; assay: Induction of apoptosis in human MCF7 cells assessed as PARP proteolysis at 1 uM after 48 hrs by Western blot analysis; format: functional, cell-based
[46] = tested on: MCF7; assay: Cytotoxicity against human MCF7 cells assessed as reduction of colony formation at 0.1 uM after 14 days by MTT staining-based anchorage-independant soft agar assay; format: functional, cell-based
[47] = Cytotoxicity against human MCF10A cells assessed as cell viability after 5 days by MTT assay; format: cell-based; details: MCF-10A, 120 h
[48] = tested on: MCF7; assay: Induction of p53 consensus sequences deficient […]/WAF1 promoter activity in human MCF7 cells at 1 uM after 24 hrs by dual luciferase reporter gene assay; format: cell-based
[49] = target: Cellular tumor antigen p53 (Homo sapiens) (UniProt P04637); assay: Activation of p53 in human MCF-7 TR1 cells assessed as upregulation of […]/WAF1 gene expression at 0.1 uM after 48 hrs by Western blot analysis; format: cell-based
[50] = tested on: MDA-MB-231; assay: Upregulation of p53 mRNA expression in human MDA-MB-231 cells at 0.1 to 1 uM after 12 hrs by RT-PCR analysis; format: functional, cell-based

Cellular tumor antigen p53 (Homo sapiens), sequence (P04637 whole entry, looked up, the tested form may be a part): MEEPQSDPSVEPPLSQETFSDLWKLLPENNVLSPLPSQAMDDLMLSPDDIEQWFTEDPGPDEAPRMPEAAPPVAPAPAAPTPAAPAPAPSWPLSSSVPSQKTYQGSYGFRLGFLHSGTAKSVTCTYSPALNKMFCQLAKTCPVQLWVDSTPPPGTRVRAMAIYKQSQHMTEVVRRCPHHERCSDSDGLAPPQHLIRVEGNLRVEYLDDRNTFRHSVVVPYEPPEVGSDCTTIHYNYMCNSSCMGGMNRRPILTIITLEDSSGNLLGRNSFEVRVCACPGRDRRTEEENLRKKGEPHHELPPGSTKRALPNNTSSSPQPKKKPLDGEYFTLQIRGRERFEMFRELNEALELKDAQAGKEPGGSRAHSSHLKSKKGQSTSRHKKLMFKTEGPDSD
DNA topoisomerase 2-alpha (Homo sapiens), sequence (P11388 whole entry): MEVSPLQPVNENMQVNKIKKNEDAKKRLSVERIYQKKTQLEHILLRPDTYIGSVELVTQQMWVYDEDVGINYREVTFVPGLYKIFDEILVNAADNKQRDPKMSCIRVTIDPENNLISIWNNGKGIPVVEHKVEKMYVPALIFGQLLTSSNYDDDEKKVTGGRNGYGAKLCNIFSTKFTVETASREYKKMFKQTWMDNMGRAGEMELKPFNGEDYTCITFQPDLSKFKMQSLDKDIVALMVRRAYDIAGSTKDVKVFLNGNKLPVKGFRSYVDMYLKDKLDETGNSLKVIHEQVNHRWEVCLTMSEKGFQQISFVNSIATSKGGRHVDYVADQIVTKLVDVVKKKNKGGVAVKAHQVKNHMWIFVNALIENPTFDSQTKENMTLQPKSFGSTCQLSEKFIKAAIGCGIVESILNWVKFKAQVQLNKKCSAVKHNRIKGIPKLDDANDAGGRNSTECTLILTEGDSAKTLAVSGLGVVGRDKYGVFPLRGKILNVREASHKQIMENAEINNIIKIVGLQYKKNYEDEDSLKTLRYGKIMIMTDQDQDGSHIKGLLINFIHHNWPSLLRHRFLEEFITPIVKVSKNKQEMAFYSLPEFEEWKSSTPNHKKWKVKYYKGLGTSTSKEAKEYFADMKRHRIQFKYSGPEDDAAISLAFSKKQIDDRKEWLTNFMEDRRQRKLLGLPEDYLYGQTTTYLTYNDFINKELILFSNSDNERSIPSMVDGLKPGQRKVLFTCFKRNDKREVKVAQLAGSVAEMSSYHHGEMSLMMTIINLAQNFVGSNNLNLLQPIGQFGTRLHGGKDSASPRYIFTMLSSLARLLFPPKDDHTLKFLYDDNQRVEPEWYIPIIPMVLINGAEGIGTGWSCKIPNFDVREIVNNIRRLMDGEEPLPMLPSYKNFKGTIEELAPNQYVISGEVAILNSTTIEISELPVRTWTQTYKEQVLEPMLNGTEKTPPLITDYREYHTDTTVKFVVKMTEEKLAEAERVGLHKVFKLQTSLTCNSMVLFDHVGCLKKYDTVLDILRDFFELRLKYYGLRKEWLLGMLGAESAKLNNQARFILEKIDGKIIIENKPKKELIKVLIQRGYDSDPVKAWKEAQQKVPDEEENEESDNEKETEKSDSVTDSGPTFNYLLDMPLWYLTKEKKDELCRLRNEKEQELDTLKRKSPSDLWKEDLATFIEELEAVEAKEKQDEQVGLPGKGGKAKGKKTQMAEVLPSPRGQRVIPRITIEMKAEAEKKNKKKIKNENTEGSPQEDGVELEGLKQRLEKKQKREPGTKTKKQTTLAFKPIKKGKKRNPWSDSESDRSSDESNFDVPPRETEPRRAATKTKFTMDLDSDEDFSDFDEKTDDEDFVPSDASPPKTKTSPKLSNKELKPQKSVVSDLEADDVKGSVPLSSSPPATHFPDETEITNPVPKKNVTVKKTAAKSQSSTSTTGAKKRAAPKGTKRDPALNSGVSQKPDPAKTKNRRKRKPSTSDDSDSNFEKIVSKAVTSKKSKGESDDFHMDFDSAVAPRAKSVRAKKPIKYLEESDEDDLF

Structure (SMILES): CCCN(CCC)c1nc2c(O)cc3c4ccccc4oc3c2c(=O)[nH]1
- Activity [1]: Active
- Activity [2]: Active
- IC50 [3]: 1000 nM
- Activity [4]: Active
- Activity [5]: Active
- Activity [6]: Active
- Activity [7]: Non-toxic
- Activity [8]: Dose-dependent effect
- inhibition of growth at 1 µM [9]: 58%
- IC50 [10]: 650 nM
- Activity [11]: Dose-dependent effect
- Activity [12]: Active
- IC50 [13]: 700 nM
- Activity [14]: inactive
- Activity [15]: Dose-dependent effect
- Activity [16]: inactive
- Activity [17]: inactive
- inhibition [18]: Dose-dependent effect
- IC50 [19]: 1200 nM
- Activity [20]: Active
- Activity [21]: Dose-dependent effect
- IC50 [22]: 980 nM
- Activity [23]: Active
- IC50 [24]: 660 nM
- inhibition [25]: inactive
- Activity [26]: Active
- Activity [27]: Active
- Activity [28]: Active
- Activity [29]: Active
- IC50 [30]: 890 nM
- Activity [31]: Non-toxic
- Activity [32]: Active
- Activity [33]: Active
- Activity [34]: Active
- Activity [35]: Active
- inhibition [36]: inactive
- Activity [37]: Active
- Activity [38]: Active
- Activity [39]: inactive
- Activity [40]: Active
- inhibition of growth at 1 µM [41]: 60%
- Activity [42]: Non-toxic
- Activity [43]: Non-toxic
- Activity [44]: Non-toxic
- Activity [45]: inactive
- Activity [46]: Active
- IC50 [47]: 33000 nM
- Activity [48]: inactive
- Activity [49]: Active
- Activity [50]: inactive
